As usually defined, the IC50 is the concentration that gives 50% inhibition.

Sequence of human GPR17 short isoform (Q13304 29-367): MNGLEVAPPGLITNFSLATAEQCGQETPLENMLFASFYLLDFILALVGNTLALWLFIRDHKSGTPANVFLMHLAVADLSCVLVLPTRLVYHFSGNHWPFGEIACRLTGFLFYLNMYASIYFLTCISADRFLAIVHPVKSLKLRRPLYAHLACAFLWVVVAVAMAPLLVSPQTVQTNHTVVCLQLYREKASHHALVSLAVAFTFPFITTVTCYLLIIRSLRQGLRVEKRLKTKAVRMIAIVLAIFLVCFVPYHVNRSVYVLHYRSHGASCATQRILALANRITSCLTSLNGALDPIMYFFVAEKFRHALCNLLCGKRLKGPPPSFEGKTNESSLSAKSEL

The assay deals with human GPR17 short isoform (Homo sapiens, UniProt Q13304). As to the kind of experiment: hGPR17 cAMP assay (GPR17 cAMP Assay Protocol, antagonist mode). Type of assay: cell-based. Particulars: CHO-K1 cells stably expressing untagged human GPR17 short isoform; EC80 of agonist MDL29,951; forskolin 15 μM; 30 min, room temperature; TR-FRET cAMP readout. The method, then: GPR17 cAMP Assay Protocol:
CHO-K1 cells stably expressing vector containing untagged human GPR17 short isoform (Roche) were cultured at 37° C./5% CO2 in DMEM (Dulbecco's Modified Eagle Medium):F-12 (1:1) supplemented with 10% foetal bovine serum and 400 μg/ml Geneticin.
Changes in intracellular cyclic adenosine monophosphate (cAMP) levels were quantified using the Nano-TRF Detection Assay kit (Roche Diagnostics, Cat. No. 05214386001). This assay allows for direct cAMP quantification in a homogeneous solution. cAMP is detected based on time-resolved fluorescence energy transfer (TR-FRET) and competitive binding of ruthenylated cAMP and endogenous cAMP to an anti-cAMP monoclonal antibody labeled with AlexaFluor-700. The Ruthenium complex serves as the FRET donor and transfers energy to AlexaFluor-700. The FRET signal is inversely proportional to the cAMP concentration.
CHO-GPR17S cells were detached with Accutase and resuspended in assay buffer consisting of Hank's Balanced Salt Solution (HBSS), 10 mM HEPES (4-(2-hydroxyethyl) piperazine-1-ethanesulfonic acid solution) and 0.1% bovine serum albumin (pH 7.4). The cells were seeded in black 384-well plates (Corning) at a density of 10′000 cells/20 μl assay buffer until the addition of compounds.
Test antagonist compounds were serially diluted in dimethyl sulfoxide (DMSO) and spotted in 384-well plates. The compounds were then diluted in BSS buffer supplemented with an EC80 concentration of MDL29,951 (3-(2-Carboxy-4,6-dichloroindol-3-yl)propionic acid) (GPR17 agonist) plus 3-Isobutyl-1-methylxanthine (IBMX) (0.5 mM final concentration) and added to the cells at room temperature. Forskolin (15 μM final concentration) was added 5 minutes after the test compounds and the cells were incubated at room temperature for 30 minutes. The assay was stopped by adding cAMP detection mix (containing detergents for cell lysis) for 90 minutes at room temperature.
Cellular cAMP was measured using a Paradigm reader (Molecular Devices). The raw data was used to calculate the FRET signal based on the assay's P-factor as per cAMP kit instructions. The data was normalized to the maximal activity of a reference antagonist and dose response curves were fitted to the percent activity of the test compounds using a sigmoidal dose response model (Genedata Screener).
Results in the hGPR17 cAMP assay are provided for compounds of formula I in Table 1
`COc1nc(C2COC2)c(F)cc1NS(=O)(=O)c1cccc2nc(Cl)ccc12` [Example 7, 2-chloro-N-[5-fluoro-2-methoxy-6-(oxetan-3-yl)-3-pyridyl]quinoline-5-sulfonamide] registered an IC50 of 431 nM.

Turning to `COc1nc(OCC(F)F)c(F)cc1NS(=O)(=O)c1cccc2nc(C)ccc12` [Example 33, N-[6-(2,2-difluoroethoxy)-5-fluoro-2-methoxy-3-pyridyl]-2-methyl-quinoline-5-sulfonamide], the IC50 amounted to 11 nM.

Compound `N#CCc1cc(F)c(NS(=O)(=O)c2cncc3cc(Cl)ccc23)cc1F` [Example 12, 7-chloro-N-[4-(cyanomethyl)-2,5-difluoro-phenyl]isoquinoline-4-sulfonamide] came in with an IC50 of 260 nM.

With `COc1nc(OCC(F)F)c(F)cc1NS(=O)(=O)c1cccc2nc(C(F)F)ccc12` [Example 35, N-[6-(2,2-difluoroethoxy)-5-fluoro-2-methoxy-3-pyridyl]-2-(difluoromethyl)quinoline-5-sulfonamide], the IC50 was found to be 214 nM.

`N#CCc1cc(F)c(NS(=O)(=O)c2ccnc3cc(Cl)ccc23)cc1F` [Example 53, 7-chloro-N-[4-(cyanomethyl)-2,5-difluoro-phenyl]quinoline-4-sulfonamide] showed an IC50 of 976 nM.

Compound `N#CCc1cc(F)c(NS(=O)(=O)c2cccc3ccccc23)cc1F` [Example 1, N-(4-(cyanomethyl)-2,5-difluorophenyl)naphthalene-1-sulfonamide] registered an IC50 of 282 nM.

`CNc1cc(S(=O)(=O)Nc2cc(F)c(OCC(F)F)nc2OC)c2ccc(Cl)cc2n1` [Example 45, 7-chloro-N-[6-(2,2-difluoroethoxy)-5-fluoro-2-methoxy-3-pyridyl]-2-(methylamino)quinoline-4-sulfonamide] registered an IC50 of 72 nM.

`N#CCc1cc(F)c(NS(=O)(=O)c2cnc(O)c3c(Cl)cccc23)cc1F` [Example 20, 8-chloro-N-[4-(cyanomethyl)-2,5-difluoro-phenyl]-1-hydroxy-isoquinoline-4-sulfonamide] displayed an IC50 of 327 nM.

Compound `COc1nc(OCC(F)F)c(F)cc1NS(=O)(=O)c1cnc(N(C)C)c2cc(Cl)ccc12` [Example 41, 7-chloro-N-[6-(2,2-difluoroethoxy)-5-fluoro-2-methoxy-3-pyridyl]-1-(dimethylamino)isoquinoline-4-sulfonamide] returned an IC50 of 61 nM.

Regarding `COc1nc(OCC(F)F)c(F)cc1NS(=O)(=O)c1cccc2cc(Cl)ccc12` [Example 34, 6-chloro-N-[6-(2,2-difluoroethoxy)-5-fluoro-2-methoxy-3-pyridyl]naphthalene-1-sulfonamide], the IC50 turned out to be 48 nM.

In turn, `COc1nc(OCC(F)F)c(F)cc1NS(=O)(=O)c1cccc2ccc(Cl)cc12` [Example 19, 7-chloro-N-[6-(2,2-difluoroethoxy)-5-fluoro-2-methoxy-3-pyridyl]naphthalene-1-sulfonamide] gave a concentration for half-maximal inhibition (IC50) of 89 nM.

`COc1nc(OCC(F)F)c(F)cc1NS(=O)(=O)c1cccc2c1CCC(C)O2` (centres unmarked) [Example 16, N-[6-(2,2-difluoroethoxy)-5-fluoro-2-methoxy-3-pyridyl]-2-methyl-chromane-5-sulfonamide] showed an IC50 of 31 nM.

Take `COc1nc(OCC(F)F)c(F)cc1NS(=O)(=O)c1cncc2c(C#N)c(Cl)ccc12` [Example 46, 7-chloro-8-cyano-N-[6-(2,2-difluoroethoxy)-5-fluoro-2-methoxy-3-pyridyl]isoquinoline-4-sulfonamide]: the IC50 is 253 nM.

`COc1nc(OC(F)F)c(F)cc1NS(=O)(=O)c1ccnc2cc(Cl)ccc12` [Example 48, 7-chloro-N-[6-(difluoromethoxy)-5-fluoro-2-methoxy-3-pyridyl]quinoline-4-sulfonamide] gave an IC50 of 154 nM.

Compound `COc1nc(OCC(F)F)c(F)cc1NS(=O)(=O)c1cccc2c(Cl)cccc12` [Example 18, 5-chloro-N-[6-(2,2-difluoroethoxy)-5-fluoro-2-methoxy-3-pyridyl]naphthalene-1-sulfonamide] returned an IC50 of 43 nM.

In turn, `N#CCc1cc(F)c(NS(=O)(=O)c2c[nH]c(=O)c3nc(Cl)ccc23)cc1F` [Example 28, 2-chloro-N-[4-(cyanomethyl)-2,5-difluoro-phenyl]-8-oxo-7H-1,7-naphthyridine-5-sulfonamide] registered an IC50 of 955 nM.

In the case of `COc1nc(OCC(F)F)c(F)cc1NS(=O)(=O)c1cncc2cc(Cl)ccc12` [Example 15, 7-chloro-N-[6-(2,2-difluoroethoxy)-5-fluoro-2-methoxy-3-pyridyl]isoquinoline-4-sulfonamide], the IC50 was 11 nM.

Compound `COc1nc(OCC(F)F)c(F)cc1NS(=O)(=O)c1c[nH]c(=O)c2c(Cl)c(Cl)ccc12` [Example 39, 7,8-dichloro-N-[6-(2,2-difluoroethoxy)-5-fluoro-2-methoxy-3-pyridyl]-1-keto-2H-isoquinoline-4-sulfonamide] gave an IC50 of 7 nM.

In turn, `COc1nc(CC#N)c(F)cc1NS(=O)(=O)c1cccc2nc(Cl)ccc12` [Example 5, 2-chloro-N-[6-(cyanomethyl)-5-fluoro-2-methoxy-3-pyridyl]quinoline-5-sulfonamide] had an IC50 of 19 nM.

With `COc1nc(OCC(F)F)c(F)cc1NS(=O)(=O)c1cccc2nc(Br)ccc12` [Example 54, 2-bromo-N-[6-(2,2-difluoroethoxy)-5-fluoro-2-methoxy-3-pyridyl]quinoline-5-sulfonamide], the IC50 came to 9 nM.

Compound `O=S(=O)(Nc1cc(F)c(OC(F)F)nc1OC(F)F)c1cccc2nc(Cl)ccc12` [Example 11, N-[2,6-bis(difluoromethoxy)-5-fluoro-3-pyridyl]-2-chloro-quinoline-5-sulfonamide] gave an IC50 of 111 nM.

Compound `O=c1[nH]cc(S(=O)(=O)Nc2cc(F)c(OC(F)F)nc2OC(F)F)c2ccc(Cl)cc12` [Example 27, N-[2,6-bis(difluoromethoxy)-5-fluoro-3-pyridyl]-7-chloro-1-keto-2H-isoquinoline-4-sulfonamide] had an IC50 of 32 nM.

The compound `COc1nc(OC(F)F)c(F)cc1NS(=O)(=O)c1cccc2nc(Cl)ccc12` [Example 6, 2-chloro-N-[6-(difluoromethoxy)-5-fluoro-2-methoxy-3-pyridyl]quinoline-5-sulfonamide] came in with an IC50 of 49 nM.

In turn, `COc1nc(NS(=O)(=O)c2cccc3nc(Cl)ccc23)nc(OC)c1OC(F)F` [Example 51, 2-chloro-N-[5-(difluoromethoxy)-4,6-dimethoxy-pyrimidin-2-yl]quinoline-5-sulfonamide] gave an IC50 of 448 nM.

Take `N#CCc1cc(F)c(NS(=O)(=O)c2c[nH]c(=O)c3cc(Cl)ccc23)cc1F` [Example 21, 7-chloro-N-[4-(cyanomethyl)-2,5-difluoro-phenyl]-1-keto-2H-isoquinoline-4-sulfonamide]: the IC50 amounted to 174 nM.

`N#CCc1cc(F)c(NS(=O)(=O)c2c[nH]c(=O)c3c(Cl)c(Cl)ccc23)cc1F` [Example 38, 7,8-dichloro-N-[4-(cyanomethyl)-2,5-difluoro-phenyl]-1-keto-2H-isoquinoline-4-sulfonamide] gave an IC50 of 182 nM.

For the compound `COc1nc(NS(=O)(=O)c2cccc3nc(Cl)ccc23)nc(OC)c1CC(F)F` [Example 8, 2-chloro-N-[5-(2,2-difluoroethyl)-4,6-dimethoxy-pyrimidin-2-yl]quinoline-5-sulfonamide], the IC50 was 174 nM.

Compound `Cc1ccc(S(=O)(=O)Nc2cc(F)c(CC#N)cc2F)c2cccnc12` [Example 47, N-[4-(cyanomethyl)-2,5-difluoro-phenyl]-8-methyl-quinoline-5-sulfonamide] showed an IC50 of 933 nM.

For the compound `COc1nc(OCC(F)F)c(F)cc1NS(=O)(=O)c1cccc2nc(Cl)ccc12` [Example 10, 2-chloro-N-[6-(2,2-difluoroethoxy)-5-fluoro-2-methoxy-3-pyridyl]quinoline-5-sulfonamide], the IC50 came out at 28 nM.

Take `CNc1ncc(S(=O)(=O)Nc2cc(F)c(CC#N)cc2F)c2ccc(Cl)cc12` [Example 44, 7-chloro-N-[4-(cyanomethyl)-2,5-difluoro-phenyl]-1-(methylamino)isoquinoline-4-sulfonamide]: the IC50 was 315 nM.

`COc1nc(NS(=O)(=O)c2c[nH]c(=O)c3cc(Cl)ccc23)nc(OC)c1CC(F)F` [Example 24, 7-chloro-N-[5-(2,2-difluoroethyl)-4,6-dimethoxy-pyrimidin-2-yl]-1-keto-2H-isoquinoline-4-sulfonamide] yielded an IC50 of 278 nM.

In the case of `COc1nc(NS(=O)(=O)c2cncc3cc(Cl)ccc23)c(F)cc1OCC(F)F` [Example 14, 7-chloro-N-[5-(2,2-difluoroethoxy)-3-fluoro-6-methoxy-2-pyridyl]isoquinoline-4-sulfonamide], the IC50 was 415 nM.
